Assay results published in US7632666B2 (priority 2005, dated 2009).
Where two headings read alike, the source gives them in different places.

Assays:
[1] = biological target: haloalkane dehalogenase DhlA (Xanthobacter autotrophicus, UniProt P22643); type: biochemical, Xanthobacter autotrophicus GJ10
[2] = biological target: haloalkane dehalogenase DhaA (Rhodococcus rhodochrous, UniProt P0A3G2); type: biochemical, Rhodococcus rhodochrous NCIMB 13064
[3] = biological target: haloalkane dehalogenase LinB (Sphingobium indicum, UniProt D4Z2G1); type: biochemical, Sphingomonas paucimobilis UT26
[4] = biological target: haloalkane dehalogenase DbjA (Bradyrhizobium diazoefficiens, UniProt P59337); type: biochemical, Bradyrhizobium japonicum USDA110
[5] = tested on: haloalkane dehalogenase DbeA; type: biochemical, Bradyrhizobium elkanii; conditions: pH 8.2
[6] = tested on: haloalkane dehalogenases DmbA, DmbB, DmbC, DhlA, DhaA, DrbA, LinB, DhmA, DbjA and DbeA; type: biochemical
[7] = biological target: haloalkane dehalogenase DmbB (Mycobacterium bovis, UniProt P64302); type: biochemical; conditions: pH 8.2
[8] = biological target: haloalkane dehalogenase DmbC (Mycobacterium bovis, UniProt P64304); type: biochemical; conditions: pH 8.2
[9] = tested on: haloalkane dehalogenase DrbA; type: biochemical, Rhodopirellula baltica; conditions: pH 8.2
[10] = biological target: haloalkane dehalogenase DhmA (Mycobacterium avium, UniProt Q93K00); type: biochemical; conditions: pH 8.2
[11] = biological target: modified protein MUT01 with haloalkane dehalogenase activity (Rhodococcus rhodochrous, UniProt P0A3G2, A172V/C176G/F144A/G171R/INS140[…]/K175G/P142A/V245A/W141H); type: biochemical; conditions: pH 8.2

Row | Structure (SMILES) | E-values DhlA [1] | E-values DhaA [2] | E-values LinB [3] | E-values DbjA [4] | E-value, chiral recognition by DbjA ([4]; pH 8.2) | E-value, chiral recognition by DbeA [5] | enantioselectivity [6] | E-values DhaA ([2]; pH 8.2) | E-values LinB ([3]; pH 8.2) | E-values DbjA ([4]; pH 8.2) | E-values DmbB [7] | E-values DmbC [8] | E-values DrbA [9] | E-values DhmA [10] | E-values DbeA [5] | E-value, chiral recognition by protein MUT01 [11] | E-value, chiral recognition by DhaA ([2]; pH 8.2)
1 | CCCC(C)Br (racemic) [2-bromopentane] | 5.5 | 7 | 16 | 145 | > 145 | 98 |  |  |  |  |  |  |  |  |  |  | 
2 | CC(Br)C(=O)c1ccccc1 (racemic) [2-bromopropiophenone] |  | >200 | 13 | >200 | > 200 |  | excellent enantioselectivity |  |  |  |  |  |  |  |  |  | 
3 | CCOC(=O)C(Br)CC (racemic) [ethyl 2-bromobutyrate] |  | >200 | >200 | >200 |  |  |  | >200 | >200 | >200 | >200 | >200 | >200 | >200 | >200 |  | 
4 | CCOC(=O)C(C)Br (racemic) [ethyl 2-bromopropionate] |  | 59 | 97 | 194 |  |  | excellent enantioselectivity |  |  |  |  |  |  |  |  | > 200 | 
5 | COC(=O)C(C)Br (racemic) [methyl 2-bromopropionate] |  | 68 | 52 | >200 |  |  | excellent enantioselectivity |  |  |  |  |  |  |  |  |  | > 200
